Columns and labels:
[1] = biological target: T1, Serine/threonine-protein kinase B-raf (Homo sapiens, UniProt P15056); assay: Inhibition of B-Raf (unknown origin)
HT-29 [2] = assay: Antiproliferative activity against human HT-29 cells assessed as cell growth proliferation; type: functional, cell-based
[3] = biological target: T2, Serine/threonine-protein kinase B-raf (Homo sapiens, UniProt P15056, V600E); assay: (§1) Inhibition of B-Raf V600E mutant (unknown origin)
Target sequence in this assay (P15056 whole entry V600E): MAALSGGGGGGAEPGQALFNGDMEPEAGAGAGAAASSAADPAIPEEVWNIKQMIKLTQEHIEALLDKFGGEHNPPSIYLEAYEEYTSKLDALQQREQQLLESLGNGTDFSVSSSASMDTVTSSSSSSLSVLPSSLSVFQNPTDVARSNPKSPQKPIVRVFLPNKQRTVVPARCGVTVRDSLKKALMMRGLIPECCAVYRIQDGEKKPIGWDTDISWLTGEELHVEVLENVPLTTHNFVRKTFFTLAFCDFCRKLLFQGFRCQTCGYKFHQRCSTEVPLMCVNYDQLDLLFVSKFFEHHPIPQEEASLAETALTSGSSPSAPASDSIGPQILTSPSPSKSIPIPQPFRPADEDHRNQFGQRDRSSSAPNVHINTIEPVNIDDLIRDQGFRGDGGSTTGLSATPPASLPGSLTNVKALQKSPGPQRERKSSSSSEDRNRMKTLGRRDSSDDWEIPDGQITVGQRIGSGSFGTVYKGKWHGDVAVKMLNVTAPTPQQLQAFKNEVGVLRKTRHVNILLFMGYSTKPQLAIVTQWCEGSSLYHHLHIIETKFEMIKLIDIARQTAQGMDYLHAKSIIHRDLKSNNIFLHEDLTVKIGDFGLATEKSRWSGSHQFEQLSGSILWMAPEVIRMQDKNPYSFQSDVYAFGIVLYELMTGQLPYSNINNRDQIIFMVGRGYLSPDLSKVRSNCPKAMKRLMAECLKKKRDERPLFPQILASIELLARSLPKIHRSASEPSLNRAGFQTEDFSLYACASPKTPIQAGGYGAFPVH

[4] = biological target: T1, Serine/threonine-protein kinase B-raf; assay: Inhibition of wild type B-Raf (unknown origin)
SK-MEL-5 [5] = assay: Antiproliferative activity against human SK-MEL-5 cells; type: functional, cell-based
A549 [6] = assay: Antiproliferative activity against human A549 cells assessed as cell growth inhibition; type: functional, cell-based
SK-OV-3 [7] = assay: Antiproliferative activity against human SK-OV-3 cells; type: functional, cell-based
SK-OV-3 [8] = assay: Antitumor activity against human SK-OV-3 cells xenografted in mouse model assessed as reduction in tumor growth measured after 40 days relative to control; type: functional; set-up: scale not given: the % may be the effect or the level left; details: time 40 day
A-375 [9] = assay: Antiproliferative activity against human A-375 cells assessed as inhibition of cell growth; type: functional, cell-based
COLO 205 = assay: Antiproliferative activity against human COLO 205 cells assessed as inhibition of cell growth; type: functional, cell-based
SK-MEL-2 = assay: Antiproliferative activity against human SK-MEL-2 cells assessed as inhibition of cell growth; type: functional, cell-based
HepG2 = assay: Antiproliferative activity against human HepG2 cells assessed as inhibition of cell growth; type: functional, cell-based
[10] = test system: Serine/threonine-protein kinase B-raf (Homo sapiens), P15056 [V600E]; assay: Inhibition of B-Raf V600E mutant (unknown origin) at 10 uM relative to control
Serine/threonine-protein kinase B-raf (Homo sapiens), P15056 [V600E], sequence (P15056 whole entry V600E): as above

SR = assay: Anticancer activity against human SR cells assessed as cell growth proliferation; type: functional, cell-based
HOP-92 = assay: Anticancer activity against human HOP-92 cells assessed as cell growth proliferation; type: functional, cell-based
NCI-H522 = assay: Anticancer activity against human NCI-H522 cells assessed as cell growth proliferation; type: functional, cell-based
HT-29 [11] = assay: Anticancer activity against human HT-29 cells assessed as cell growth proliferation; type: functional, cell-based
SW-620 = assay: Anticancer activity against human SW620 cells assessed as cell growth proliferation; type: functional, cell-based
SNB-75 = assay: Anticancer activity against human SNB-75 cells assessed as cell growth proliferation; type: functional, cell-based
A-375 [12] = assay: Anticancer activity against human A-375 cells assessed as cell growth proliferation; type: functional, cell-based
SK-MEL-5 [13] = assay: Anticancer activity against human SK-MEL-5 cells assessed as cell growth proliferation; type: functional, cell-based
OVCAR-3 = assay: Anticancer activity against human OVCAR-3 cells assessed as cell growth proliferation; type: functional, cell-based
UO-31 [14] = assay: Anticancer activity against human UO-31 cells assessed as cell growth proliferation; type: functional, cell-based
PC-3 [15] = assay: Anticancer activity against human PC-3 cells assessed as cell growth proliferation; type: functional, cell-based
MDA-MB-468 [16] = assay: Anticancer activity against human MDA-MB-468 cells assessed as cell growth proliferation; type: functional, cell-based
[17] = test system: Serine/threonine-protein kinase B-raf (Homo sapiens), P15056 [V600E]; assay: as §1
A-375 [18] = assay: Cytotoxicity against human A-375 cells; type: functional, cell-based
HUVEC = assay: Cytotoxicity against HUVEC cells; type: functional, cell-based; details: Homo sapiens
A-375 [19] = assay: Antitumor activity against human A-375 cells xenografted in mouse model assessed as tumor growth inhibition at 50 mg/kg relative to control; type: functional; set-up: scale not given: the % may be the effect or the level left
[20] = biological target: T1, Serine/threonine-protein kinase B-raf; assay: Inhibition of wild type B-Raf (unknown origin) by radiometric protein kinase-reaction biology assay
[21] = biological target: T2, Serine/threonine-protein kinase B-raf; assay: Inhibition of B-Raf V600E mutant (unknown origin) by radiometric protein kinase-reaction biology assay
Target sequence in this assay (P15056 2-766 V600E limits assumed): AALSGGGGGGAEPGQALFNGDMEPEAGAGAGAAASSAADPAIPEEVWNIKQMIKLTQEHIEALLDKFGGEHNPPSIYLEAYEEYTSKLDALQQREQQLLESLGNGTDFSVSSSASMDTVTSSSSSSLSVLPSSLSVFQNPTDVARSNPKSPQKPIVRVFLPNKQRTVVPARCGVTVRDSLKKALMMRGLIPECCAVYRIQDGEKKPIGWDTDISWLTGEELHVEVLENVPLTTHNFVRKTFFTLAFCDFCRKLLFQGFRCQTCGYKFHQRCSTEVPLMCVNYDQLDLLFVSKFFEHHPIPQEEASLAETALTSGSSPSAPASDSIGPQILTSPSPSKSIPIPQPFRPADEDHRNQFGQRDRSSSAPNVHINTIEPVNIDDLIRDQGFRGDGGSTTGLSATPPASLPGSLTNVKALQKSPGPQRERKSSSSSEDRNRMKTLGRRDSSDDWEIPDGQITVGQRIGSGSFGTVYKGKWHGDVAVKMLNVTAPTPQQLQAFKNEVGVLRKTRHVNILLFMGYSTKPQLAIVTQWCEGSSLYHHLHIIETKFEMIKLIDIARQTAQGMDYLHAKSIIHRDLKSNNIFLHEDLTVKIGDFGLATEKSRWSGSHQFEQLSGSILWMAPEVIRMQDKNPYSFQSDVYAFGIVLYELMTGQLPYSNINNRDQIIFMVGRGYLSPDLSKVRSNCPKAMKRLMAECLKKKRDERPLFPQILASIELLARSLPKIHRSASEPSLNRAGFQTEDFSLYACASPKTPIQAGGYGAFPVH

A-375 [22] = assay: Antiproliferative activity against human A-375 cells assessed as reduction in cell viability; type: functional, cell-based
SK-MEL-28 = assay: Antiproliferative activity against human SK-MEL-28 cells assessed as reduction in cell viability; type: functional, cell-based
K562 [23] = assay: Antiproliferative activity against human K562 cells assessed as reduction in cell viability; type: functional, cell-based
NCI-H460 = assay: Antiproliferative activity against human NCI-H460 cells assessed as reduction in cell viability; type: functional, cell-based
HT-29 [24] = assay: Antiproliferative activity against human HT-29 cells assessed as reduction in cell viability; type: functional, cell-based
U-251 = assay: Antiproliferative activity against human U-251 cells assessed as reduction in cell viability; type: functional, cell-based
SK-MEL-5 [25] = assay: Antiproliferative activity against human SK-MEL-5 cells assessed as reduction in cell viability; type: functional, cell-based
IGROV-1 = assay: Antiproliferative activity against human IGROV-1 cells assessed as reduction in cell viability; type: functional, cell-based
UO-31 [26] = assay: Antiproliferative activity against human UO-31 cells assessed as reduction in cell viability; type: functional, cell-based
PC-3 [27] = assay: Antiproliferative activity against human PC-3 cells assessed as reduction in cell viability; type: functional, cell-based
T47D = assay: Antiproliferative activity against human T47D cells assessed as reduction in cell viability; type: functional, cell-based
[28] = biological target: T1, Serine/threonine-protein kinase B-raf; assay: Inhibition of wild type B-Raf (unknown origin) incubated for 1 hr by ELISA based luminescence assay
[29] = biological target: T2, Serine/threonine-protein kinase B-raf; assay: Inhibition of B-Raf V600E mutant (unknown origin) incubated for 1 hr by ELISA based luminescence assay
Target sequence in this assay (P15056 2-766 V600E limits assumed): as above

[30] = biological target: T1, Serine/threonine-protein kinase B-raf; assay: Inhibition of human wild type B-Raf (433 to 726 residues) expressed in Escherichia coli BL21 cells by ELISA based assay
[31] = biological target: T2, Serine/threonine-protein kinase B-raf; assay: Inhibition of human B-Raf V600E mutant (433 to 726 residues) expressed in Escherichia coli BL21 cells by ELISA based assay
Target sequence in this assay (P15056 2-766 V600E limits assumed): as above

A-375 [32] = assay: Antiproliferative activity against human A-375 cells incubated for 48 hrs by MTT assay; type: functional, cell-based; details: A-375, 48 h
HT-29 [33] = assay: Antiproliferative activity against human HT-29 cells incubated for 48 hrs by MTT assay; type: functional, cell-based; details: HT-29, 48 h
PC-3 [34] = assay: Antiproliferative activity against human PC-3 cells incubated for 48 hrs by MTT assay; type: functional, cell-based; details: PC-3, 48 h
A549 [35] = assay: Antiproliferative activity against human A549 cells incubated for 48 hrs by MTT assay; type: functional, cell-based; details: A549, 48 h
[36] = biological target: T2, Serine/threonine-protein kinase B-raf; assay: Binding affinity to B-Raf V600E mutant (unknown origin)
Target sequence in this assay (P15056 2-766 V600E limits assumed): as above

RPMI-8226 = assay: Antiproliferative activity against human RPMI-8226 cells; type: functional, cell-based
K562 [37] = assay: Antiproliferative activity against human K562 cells; type: functional, cell-based
MDA-MB-468 [38] = assay: Antiproliferative activity against human MDA-MB-468 cells; type: functional, cell-based

T1 sequence (P15056 whole entry): as the sequence (P15056 whole entry V600E) above, with E600V counted along it

Q: COc1ccc(-c2n[nH]c(/N=C/c3ccc(O)c(OC)c3)n2)cc1 was tested. Which IC50 [1] did it give?
A: Its IC50 is 700 nM.

Q: And the IC50 (HT-29 [2])?
A: Its IC50 is 1300 nM.

Q: For O=S(=O)(NCCCNc1cc(-c2cn(-c3ccccc3)nc2-c2cccc(O)c2)ccn1)c1ccc(Cl)cc1, which IC50 [3] is on record?
A: The IC50 was 1160 nM.

Q: And the IC50 [4]?
A: The IC50 was 4870 nM.

Q: And the IC50 (SK-MEL-5 [5])?
A: Its IC50 is 1270 nM.

Q: What does the source list for Cc1ccc(C2=NN=C(NC(=S)Nc3ccc(Cl)cc3)SC2)cc1?
A: IC50 [3]: 180 nM; IC50 (A549 [6]): 320 nM

Q: Which IC50 [3] does the source give for COC[C@@H]1C[C@H]2[C@@H]3CCc4cc(O)ccc4[C@H]3CC[C@]2(C)C1NN (stereo partly specified) here?
A: The IC50 was 41 nM.

Q: And the IC50 [4]?
A: The IC50 was 4320 nM.

Q: And the IC50 (SK-OV-3 [7])?
A: Its IC50 is 4230 nM.

Q: What about the Activity (SK-OV-3 [8]) of the same molecule?
A: Its Activity is 93.61%.

Q: How did the IC50 [3] turn out when Cc1ccc(C(=O)Nc2ccc(Cl)c(C(F)(F)F)c2)cc1NC(=O)C1(c2ccnc(NCCN3CCN(C)CC3)n2)CC1 was run?
A: The IC50 was 12.6 nM.

Q: What about the IC50 [4] of the same molecule?
A: Its IC50 is 19.7 nM.

Q: And the IC50 (A-375 [9])?
A: Its IC50 is 1070 nM.

Q: What about the IC50 (COLO 205) of the same molecule?
A: Its IC50 is 1920 nM.

Q: What about the IC50 (SK-MEL-2) of the same molecule?
A: Its IC50 is 580 nM.

Q: And the IC50 (HepG2)?
A: Its IC50 is 2460 nM.

Q: Which results are given for CCN1CCN(CCC(=O)Nc2cccc(-n3cc(-c4ccncc4)c(-c4ccc(Cl)c(OC)c4)n3)c2)CC1?
A: inhibition [10]: 100%; IC50 (SR): 430 nM; IC50 (HOP-92): 780 nM; IC50 (NCI-H522): 270 nM; IC50 (HT-29 [11]): 380 nM; IC50 (SW-620): 340 nM; IC50 (SNB-75): 390 nM; IC50 (A-375 [12]): 820 nM; IC50 (SK-MEL-5 [13]): 510 nM; IC50 (OVCAR-3): 350 nM; IC50 (UO-31 [14]): 920 nM; IC50 (PC-3 [15]): 450 nM; IC50 (MDA-MB-468 [16]): 270 nM

Q: With CNC(=O)c1nc2ccc(C(=O)c3cccc(NC(=O)Nc4ccc(Cl)c(C(F)(F)F)c4)c3)cc2[nH]1 as the molecule, how does the IC50 [17] read?
A: The IC50 was 57.8 nM.

Q: And the IC50 (A-375 [18])?
A: Its IC50 is 3620 nM.

Q: And the IC50 (HUVEC)?
A: Its IC50 is 12500 nM.

Q: And the Activity (A-375 [19])?
A: The Activity was 17.99%.

Q: O=S(=O)(NCCCNc1nccc(-c2c(-c3cccc(F)c3)nc3occn23)n1)c1ccccc1 was tested. Which IC50 [20] did it give?
A: Its IC50 is 172 nM.

Q: What about the IC50 [21] of the same molecule?
A: The IC50 was 92 nM.

Q: And the IC50 (A-375 [22])?
A: Its IC50 is 9810 nM.

Q: And the IC50 (SK-MEL-28)?
A: The IC50 was 11200 nM.

Q: What about the IC50 (K562 [23]) of the same molecule?
A: Its IC50 is 56300 nM.

Q: What about the IC50 (NCI-H460) of the same molecule?
A: The IC50 was 18500 nM.

Q: What about the IC50 (HT-29 [24]) of the same molecule?
A: Its IC50 is 51800 nM.

Q: And the IC50 (U-251)?
A: Its IC50 is 7380 nM.

Q: What about the IC50 (SK-MEL-5 [25]) of the same molecule?
A: The IC50 was 28400 nM.

Q: And the IC50 (IGROV-1)?
A: Its IC50 is 40200 nM.

Q: And the IC50 (UO-31 [26])?
A: The IC50 was 39800 nM.

Q: What about the IC50 (PC-3 [27]) of the same molecule?
A: The IC50 was 38900 nM.

Q: And the IC50 (T47D)?
A: Its IC50 is 53600 nM.

Q: What does the source list for O=S(=O)(Nc1ccc(F)c(Nc2ccccc2-c2ncnc3[nH]cnc23)c1F)c1ccoc1?
A: IC50 [3]: 2 nM; IC50 [4]: 2.2 nM

Q: Cc1cnc2[nH]cc(C(=O)c3c(F)ccc(N[S+]([O-])C(C)C)c3F)c2c1 (stereo unspecified) was tested. Which IC50 [28] did it give?
A: The IC50 was 200 nM.

Q: And the IC50 [29]?
A: Its IC50 is 54 nM.

Q: Which results are given for COC(=O)c1ccccc1-c1ccc(/C=C/[N+](=O)[O-])o1?
A: IC50 [30]: 1380 nM; IC50 [31]: 1960 nM

Q: What does the source list for Cn1ncc2c(Oc3ccc(NC(=O)Nc4ccc(Cl)c(C(F)(F)F)c4)cc3)ncnc21?
A: IC50 (A-375 [32]): 12200 nM; IC50 (HT-29 [33]): 14700 nM; IC50 (PC-3 [34]): 23400 nM; IC50 (A549 [35]): 12500 nM

Q: How did the IC50 [36] turn out when COc1cccc(-c2nn(-c3ccccc3)cc2-c2ccncc2)c1 was run?
A: The IC50 was 1440 nM.

Q: And the IC50 (RPMI-8226)?
A: Its IC50 is 1710 nM.

Q: And the IC50 (K562 [37])?
A: Its IC50 is 3420 nM.

Q: And the IC50 (MDA-MB-468 [38])?
A: The IC50 was 6700 nM.

— ChEMBL document CHEMBL5230104, “Systemic review on B-RafV600E mutation as potential therapeutic target for the treatment of cancer” (Eur J Med Chem, 2020)
